Laboratory results taken from US20070023364A1, “Tetrasilver Tetraoxide as Disinfective Agent for Cryptosporidium” (priority 2005, published 2007).
Several values for one entry are separate records, joined by “and”; a condition that tells them apart may be missing. Identical values can stand only once. Like-named read-outs stand apart in the source and are kept apart here.

Key:
avian species = details: USEPA scientific findings; cited from earlier work
[1] = test system: Cryptosporidium parvum oocysts
Description: Excystation, i.e., the release of sporozoites from the oocysts, was used to assess viability of the Cryptosporidium samples. COREXIT is 2-butoxyethanol (ethyleneglycol monobutyl ether), butyl cellosolve, butyl glycol, glycol ether eb. Other ethers similar to ethyleneglycol monobutyl ether may be used. This dispersant is composed of about 48% nonionic surfactants, including ethoxylated sorbitan mono- and trioleates (Tween 80 and Tween 85) and sorbitan monooleate (Span 80), about 35% anionic surfactants, including sodium dioctyl sulfosuccinate (AOT), and about 17% ethylene glycol monobutyl ether as a solvent EMULPHOR is an emulsifier derivative of corn oil. EMULPHOR may also be used rather than ALKAMUS. ALKAMUS is a polyethoxylated castor oil 40 mole ethoxlate. EMULPHOR from BASF, is a high molecular weight ether sulphate.

aquatic species = details: USEPA scientific findings; cited from earlier work
E. coli = details: activated TTO, kill within 10 min or less; cited from earlier work
[2] = activated tetrasilver tetraoxide; cited from earlier work
[3] = test system: Cryptosporidium parvum oocysts; remark: listed apart in the source
Method: Disinfection was assessed using cell culture infectivity as the test, this procedure being more definitive than excystation. […] The 90% inactivation is a Log10 reduction of 1.0.
Infectivity in cell cultures was used in this study. Although excystation is an acceptable way to assay for live sporozoites, infectivity in cell cultures is a definitive assay generally accepted by the scientific community for assessing Cryptosporidium oocyst viability/non-viability. This assay is virtually equivalent to using living mammals to confirm infectious organisms, but it provides better quantitation of viable/infectious organisms.

Cryptosporidium = details: ozone-exposed Cryptosporidium, accepted by USEPA; cited from earlier work
[4] = test system: Escherichia coli, Enterococcus faecalis and Pseudomonas aeruginosa; experiment: Iodine disinfection of waterborne bacterial pathogens; assay type: cell-based; details: 5 ppm iodine
Method: (§1) Test studies confirmed these observations using doses of 5 and 15 ppm of iodine against three waterborne pathogens (Escherichia coli, Enterococcus faecalis and Pseudomonas aeruginosa). […] Unfortunately, experiments using iodine even up to 100 ppm (saturation level) were ineffective in killing Cryptosporidium oocysts when exposed for 30 and 60 min. periods, respectively.

Cryptosporidium oocysts = experiment: Iodine exposure of Cryptosporidium oocysts (killing); assay type: cell-based; details: iodine up to 100 ppm (saturation level), 30 and 60 min exposure
Method: as §1

[5] = 2 ppm tetrasilver tetraoxide and 10 ppm potassium monopersulfate, excystation
[6] = 3 mg/L TTO, 15 mg/L persulfate, 1% cocktail, 60 min
[7] = 2 and 3 mg/L activated TTO, irrespective of cocktail used
[8] = activated 2 mg/L TTO in 1.0% cocktail, 60 min (study with 2, 5, 10 mg/L)

## [Ag+].[Ag+].[Ag+].[Ag+].[O-2].[O-2].[O-2].[O-2] [tetrasilver tetraoxide]
Avian species
  toxicity to avian species: practically non-toxic
[1]; 1% cocktail, 3 hours, 1×10^3 oocysts in 50 ml HMEM
  inactivation of oocysts: 19.4%
[1]; 2 ppm tetrasilver tetraoxide and 10 ppm potassium monopersulfate
  viable oocysts by excystation: 1.2+/−1.1%
[1]; [5]
  kill: 98.8%
  log10 reduction in infectious Cryptosporidium parvum: 2 log10 and 2.0 log10
Aquatic species
  toxicity to aquatic species: toxic
E. coli
  concentration that kills the organisms: 1-2 ppm
[2]
  mutagenicity: not mutagenic
[3]; 1 mg/L TTO
  Average Infectious Oocysts × 100,000: 68 × 100,000
  Average Log10 Reduction of Viable Oocysts (Inactivation): 0.23 Log10
  Average Percent Oocyst Inactivation of all Variables: 32.0%
[3]; 1 mg/L TTO, 0% cocktail, 60 min
  Log10 reduction: 0.6 Log10
[3]; 1 mg/L TTO, 0% cocktail, 60 min, 1.2×10^7 oocysts/50 mL
  inactivation: 75%
[3]; 1 mg/L TTO, 5 mg/L persulfate, 1% cocktail
  Infectious Oocysts × 100,000 using 1% Cocktail: 100 × 100,000
[3]; 2 mg/L TTO
  Average Infectious Oocysts × 100,000: 35 × 100,000
  Average Log10 Reduction of Viable Oocysts (Inactivation): 0.83 Log10
  Average Percent Oocyst Inactivation of all Variables: 65.0%
[3]; 2 mg/L TTO, 10 mg/L persulfate, 0% cocktail
  Infectious Oocytes × 100,000 using 0% Cocktail: 2 × 100,000
[3]; 2 mg/L TTO, 10 mg/L persulfate, 0% cocktail, 60 min
  Log10 reduction: 1.8 Log10
[3]; 2 mg/L TTO, 10 mg/L persulfate, 1% cocktail
  Infectious Oocysts × 100,000 using 1% Cocktail: 35 × 100,000
[3]; 3 mg/L TTO
  Average Infectious Oocysts × 100,000: 13 × 100,000
  Average Log10 Reduction of Viable Oocysts (Inactivation): 1.2 Log10
  Average Percent Oocyst Inactivation of all Variables: 87.0%
[3]; 3 mg/L TTO, 0% cocktail, 60 min
  Log10 reduction: 1.3 Log10
[3]; 3 mg/L TTO, 15 mg/L persulfate, 1% cocktail
  Infectious Oocysts × 100,000 using 1% Cocktail: 2 × 100,000
[3]; [6]
  Log10 oocyst reduction: 1.8 Log10
  inactivation / kill of oocysts: 98%
[3]; 3 mg/L TTO, cocktail present
  effectiveness of inactivation with cocktail versus average inactivation of infectious oocysts: 6.5 times
[3]; [7]
  Log10 reduction: 1.8 Log10
  kill of oocysts: 98%
[3]; [8]
  Log10 reduction: 1.0 Log10
  oocyst inactivation relative to stock oocyst control: 90%
[3]; cocktail concentration raised to 2%, 60 min
  inactivation: Lesser, but significant inactivations
[3]; other test matrices (2, 5, 10 mg/L, with and without 1% cocktail), 60 min
  Log10 reduction/inactivation: less than a one Log10 reduction/inactivation

## O=[O+][O-] [ozone]
Cryptosporidium
  Log10 reduction: 2.0 Log 10

## II [iodine]
[1]; saturated iodine solution with 1% cocktail of COREXIT and ALKAMUS EL 620, 3 hours
  inactivation of oocysts: ineffective
[4]; within 5 min
  log10 reduction: 6 log10
[4]; within 10 min of exposure
  log10 inactivation: ≤ 8 log10
Cryptosporidium oocysts
  killing of Cryptosporidium oocysts: ineffective
